Laboratory results: paper PMC5791972 (PLoS ONE, 2018)
“Also recorded” adds a separate entry of the source. Read-outs that look alike come from different tables or passages of the source.

Columns and labels:
[1] = biological target: T1, AR (h) (Homo sapiens, UniProt P10275, T878A); type: binding; details: 1.0E-06 M
T1 construct: AR (h) LNCaP cells [3H]methyltrienolone; host or cells: LNCaP cells (cytosol)
T1 sequence (P10275 1-920 T878A): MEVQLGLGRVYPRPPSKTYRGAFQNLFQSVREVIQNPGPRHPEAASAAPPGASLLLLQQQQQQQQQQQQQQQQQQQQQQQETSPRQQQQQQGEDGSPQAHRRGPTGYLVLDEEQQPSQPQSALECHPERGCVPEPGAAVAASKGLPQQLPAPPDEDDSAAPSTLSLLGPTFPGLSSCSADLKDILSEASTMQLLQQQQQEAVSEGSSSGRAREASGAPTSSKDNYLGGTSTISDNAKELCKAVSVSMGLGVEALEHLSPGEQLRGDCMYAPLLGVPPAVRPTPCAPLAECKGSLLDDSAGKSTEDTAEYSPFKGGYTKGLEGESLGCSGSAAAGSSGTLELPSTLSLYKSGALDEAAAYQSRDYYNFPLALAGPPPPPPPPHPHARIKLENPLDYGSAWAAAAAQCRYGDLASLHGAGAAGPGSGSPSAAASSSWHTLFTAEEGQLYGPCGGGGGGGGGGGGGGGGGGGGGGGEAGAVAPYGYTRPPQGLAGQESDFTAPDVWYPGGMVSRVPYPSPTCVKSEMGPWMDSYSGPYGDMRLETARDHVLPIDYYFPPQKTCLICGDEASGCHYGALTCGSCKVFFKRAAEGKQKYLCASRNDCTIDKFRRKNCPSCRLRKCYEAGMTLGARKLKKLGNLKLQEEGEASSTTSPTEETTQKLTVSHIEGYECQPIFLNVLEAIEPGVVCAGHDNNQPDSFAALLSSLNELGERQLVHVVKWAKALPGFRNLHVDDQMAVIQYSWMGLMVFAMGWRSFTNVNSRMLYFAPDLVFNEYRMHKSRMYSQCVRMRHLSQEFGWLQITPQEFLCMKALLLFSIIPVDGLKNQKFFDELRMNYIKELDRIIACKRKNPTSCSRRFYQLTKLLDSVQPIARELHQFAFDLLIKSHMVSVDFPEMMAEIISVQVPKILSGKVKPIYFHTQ

[2] = C57BL/6, mouse, in vivo
[3] = system: basolateral amygdala neurons; test: Slice recordings of CCK-4 induced EPSCs; type: cell-based, mouse
[4] = biological target: Kv1.5 (Homo sapiens, UniProt P22460); test: Ion channel selectivity patch clamp; type: cell-based; details: Voltage (+40 mV)
[5] = system: CD-1 mice; test: Forced swim test
[6] = system: C57/BL6 mice; test: Standard elevated plus maze; details: 3 mg/kg oral, 60 min prior
[7] = Standard elevated plus maze; details: male, C57/BL6, mouse, in vivo, 3 mg/kg
[8] = system: BZD (central); type: binding, rat; details: 1.0E-06 M
[9] = biological target: T2, H4 (h) (Homo sapiens, UniProt Q9H3N8); type: binding; details: 1.0E-06 M
T2 construct: host or cells: HEK-293 cells

[10] = biological target: T3, MC3 (h) (Homo sapiens, UniProt P41968); type: binding
T3 construct: host or cells: CHO cells

[11] = biological target: T4, phosphatase 1B (h) (PTP1B) (Homo sapiens, UniProt P18031); test: enzyme assay; type: biochemical; details: 1.0E-06 M
T4 construct: host or cells: E. coli
T4 sequence (P18031 1-435): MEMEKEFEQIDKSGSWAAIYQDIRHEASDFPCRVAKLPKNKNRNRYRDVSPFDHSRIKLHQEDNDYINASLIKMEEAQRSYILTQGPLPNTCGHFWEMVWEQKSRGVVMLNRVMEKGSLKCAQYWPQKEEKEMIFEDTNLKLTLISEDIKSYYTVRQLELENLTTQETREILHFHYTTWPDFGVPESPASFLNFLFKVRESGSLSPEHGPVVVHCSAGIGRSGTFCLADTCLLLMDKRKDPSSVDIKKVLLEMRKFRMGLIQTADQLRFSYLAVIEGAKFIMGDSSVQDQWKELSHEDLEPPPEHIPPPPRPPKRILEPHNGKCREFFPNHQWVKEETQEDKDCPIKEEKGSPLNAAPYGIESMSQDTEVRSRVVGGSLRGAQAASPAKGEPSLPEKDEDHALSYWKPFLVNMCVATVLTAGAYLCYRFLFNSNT

[12] = biological target: T5, caspase-3 (h) (Homo sapiens, UniProt P42574); test: biochemical; details: 1.0E-06 M
T5 construct: Cerep (contract assay); host or cells: E. coli
T5 sequence (P42574 29-175 limits assumed): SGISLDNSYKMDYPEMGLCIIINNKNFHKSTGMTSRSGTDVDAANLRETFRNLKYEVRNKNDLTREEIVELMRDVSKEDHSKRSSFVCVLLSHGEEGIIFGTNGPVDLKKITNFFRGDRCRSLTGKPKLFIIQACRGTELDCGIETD
T5 sequence (P42574 176-277 limits assumed): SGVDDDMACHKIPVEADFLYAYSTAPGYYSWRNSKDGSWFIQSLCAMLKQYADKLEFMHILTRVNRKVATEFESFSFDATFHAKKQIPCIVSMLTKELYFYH

T3 sequence (P41968 whole entry): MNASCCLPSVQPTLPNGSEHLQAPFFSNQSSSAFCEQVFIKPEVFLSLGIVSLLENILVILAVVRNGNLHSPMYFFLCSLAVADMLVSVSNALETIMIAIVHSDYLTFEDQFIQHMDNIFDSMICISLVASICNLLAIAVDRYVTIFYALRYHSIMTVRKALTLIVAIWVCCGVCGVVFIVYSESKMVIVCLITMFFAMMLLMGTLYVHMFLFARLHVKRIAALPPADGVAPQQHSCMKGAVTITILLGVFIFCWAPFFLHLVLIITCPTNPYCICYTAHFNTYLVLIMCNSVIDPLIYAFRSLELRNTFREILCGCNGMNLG
T2 sequence (Q9H3N8 whole entry): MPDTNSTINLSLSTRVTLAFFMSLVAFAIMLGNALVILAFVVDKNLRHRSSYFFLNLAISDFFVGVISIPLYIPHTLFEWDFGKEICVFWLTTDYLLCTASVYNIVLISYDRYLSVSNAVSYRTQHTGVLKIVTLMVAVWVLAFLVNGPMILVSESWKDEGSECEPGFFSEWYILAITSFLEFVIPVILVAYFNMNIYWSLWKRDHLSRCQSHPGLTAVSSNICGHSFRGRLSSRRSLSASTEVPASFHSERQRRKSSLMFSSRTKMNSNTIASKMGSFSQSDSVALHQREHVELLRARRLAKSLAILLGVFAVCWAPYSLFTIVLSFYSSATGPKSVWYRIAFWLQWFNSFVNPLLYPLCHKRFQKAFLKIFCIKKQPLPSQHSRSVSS
Chain of Kv1.5 (P22460 whole entry): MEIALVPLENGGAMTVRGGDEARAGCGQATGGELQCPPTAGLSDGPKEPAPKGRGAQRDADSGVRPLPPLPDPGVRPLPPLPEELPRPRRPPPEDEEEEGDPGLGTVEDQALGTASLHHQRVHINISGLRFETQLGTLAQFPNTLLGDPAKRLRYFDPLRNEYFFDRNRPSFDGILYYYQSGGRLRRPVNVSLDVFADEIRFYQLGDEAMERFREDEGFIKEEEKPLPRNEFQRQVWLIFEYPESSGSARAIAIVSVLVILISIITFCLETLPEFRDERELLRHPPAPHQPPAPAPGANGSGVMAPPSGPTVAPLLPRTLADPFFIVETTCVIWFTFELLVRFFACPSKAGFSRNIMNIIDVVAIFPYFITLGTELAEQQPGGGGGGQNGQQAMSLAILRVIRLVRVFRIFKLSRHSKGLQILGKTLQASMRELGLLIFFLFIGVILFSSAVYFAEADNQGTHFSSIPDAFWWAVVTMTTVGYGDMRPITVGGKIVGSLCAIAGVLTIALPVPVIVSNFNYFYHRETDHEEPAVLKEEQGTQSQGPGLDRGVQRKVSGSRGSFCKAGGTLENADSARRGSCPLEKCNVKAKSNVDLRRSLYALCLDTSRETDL

In the case of `Cn1c(=O)n(CCCO)c(=O)c2c1nc(Oc1cccc(Cl)c1)n2Cc1ccc(Cl)cc1` [HC-070], the inhibition at 1 µM ([1]; read-out: % Inhibition 1st) is reported as 11.1%, the inhibition at 1 µM ([1]; read-out: % Inhibition 2nd) is reported as 3.2% and the inhibition at 1 µM ([1]; read-out: % Inhibition Mean) is reported as 7.1%. The concentration in brain ([2]; iv, 1 mg/kg, 2 h) was 299 ± 11 nmol/kg, the “concentration in brain tissue” value ([2]; po, 10 mg/kg, 2 h) was 525 ± 72 nmol/kg and the unbound brain concentration ([2]; po, 10 mg/kg, 2 h) was 1.5 nmol/kg. For the same compound, the MRTdisp ([2]; male, iv, 1 mg/kg) was 1.9 h, the MRTtot ([2]; male, po, 10 mg/kg) was 4.5 h and the “effect on CCK-4 stimulated increase of postsynaptic currents” value ([3]; 20 nM, CCK-4 1 μM) was “pronounced attenuation of the CCK-4 related effect”. The “basal synaptic activity prior to CCK-4 addition” value ([3]; slices pretreated with 20 nM HC-070, n = 8) was 154±35 postsynaptic currents/minute, the IC50 [4] was over 1.9 µM and the immobility time ([5]; 0.3, 1 or 3 mg/kg PO, 60 min prior, CD-1 mice) was “reduced the immobility time; also recorded: significantly decreased”. For the same compound, the IC50 ([5]; Mus musculus, read-out: IC50 of immobility versus average plasma exposure (PK-PD)) was 0.058 µM, the “calculated free brain concentration corresponding to PK-PD IC50” value ([5]; male, CD-1 and C57BL/6, mouse, in vivo) was 0.00016 µM and the “number of open arm entries compared to vehicle” value [6] was “increased open arm entries; also recorded: significantly increased”. The concentration at 60 min [7] was 0.782 ± 0.25 µM.

With `Cn1c(=O)n(CCCO)c(=O)c2c1nc(Oc1cccc(OC(F)(F)F)c1)n2Cc1ccc(Cl)cc1` [HC-608] the “% Inhibition 1st” value [8] was -3%, the “% Inhibition 2nd” value [8] was -31.5% and the “% Inhibition Mean” value [8] was -17.3%. The inhibition at 1 µM ([9]; read-out: % Inhibition 1st) was -13.6%, the inhibition at 1 µM ([9]; read-out: % Inhibition 2nd) was -1.9% and the inhibition at 1 µM ([9]; read-out: % Inhibition Mean) was -7.8%. It also gave an inhibition at 1 µM ([10]; 1.0E-06 M, read-out: % Inhibition 1st) of 14.4%, an inhibition at 1 µM ([10]; 1.0E-06 M, read-out: % Inhibition 2nd) of 15.3% and an inhibition at 1 µM ([10]; read-out: % Inhibition Mean) of 14.8%. The “% Inhibition 1st” value [11] was -6.7%, the “% Inhibition 2nd” value [11] was -5.9% and the “% Inhibition Mean” value [11] was -6.3%. For the same compound, the inhibition at 1 µM ([12]; read-out: % Inhibition 1st) was 3.7%, the inhibition at 1 µM ([12]; read-out: % Inhibition 2nd) was 2.3% and the inhibition at 1 µM ([12]; read-out: % Inhibition Mean) was 3%.
